According to ChEMBL document CHEMBL5316359, “Strophioblachins A-K, Structurally Intriguing Diterpenoids from Strophioblachia fimbricalyx with Potential Anticardiac Hypertrophic Inhibitory Activity” (J Nat Prod, 2023):
Calls of active or inactive are those of the source. The calls are words filed in the database; no cut-off is given here.

Columns and labels:
[1] = tested on: Cardiac muscle cell; assay: Anticardiac hypertrophic activity in phenylephrine-induced hypertrophy in neonatal Sprague-Dawley rat cardiomyocyte assessed as decrease in NPPB mRNA expression at 5 to 50 uM preincubated for 12 hrs followed by phenylephrine stimulation and measured after 48 hrs by qRT-PCR analysis; type: functional, cell-based; settings: dose 5-50 µM, time 60.0 hrs
[2] = tested on: Cardiac muscle cell; assay: Anticardiac hypertrophic activity in phenylephrine-induced hypertrophy in neonatal Sprague-Dawley rat cardiomyocyte assessed as decrease in NPPA mRNA expression at 5 to 50 uM preincubated for 12 hrs followed by phenylephrine stimulation and measured after 48 hrs by qRT-PCR analysis; type: functional, cell-based; settings: dose 5-50 µM, time 60.0 hrs
[3] = tested on: Cardiac muscle cell; assay: Anticardiac hypertrophic activity in phenylephrine-induced hypertrophy in neonatal Sprague-Dawley rat cardiomyocyte assessed as decrease in ANP protein expression at 5 to 50 uM preincubated for 12 hrs followed by phenylephrine stimulation and measured after 48 hrs by Western blot analysis; type: functional, cell-based; settings: dose 5-50 µM, time 60.0 hrs
[4] = Cytotoxicity against neonatal Sprague-Dawley rat cardiomyocyte assessed as reduction in ANP expression incubated for 48 hrs by ELISA assay; type: toxicity, cell-based, Cardiac muscle cell; settings: neonatal rat cardiomyocytes

| Structure (SMILES) | Activity [1] | Activity [2] | Activity [3] | IC50 at 48 h [4] |
| --- | --- | --- | --- | --- |
| C=C[C@@]12C=C(C)C(=O)C=C1[C@]1(C)CC[C@@H](O)C(C)(C)[C@H]1CC2 | Dose-Dependent Effect | Dose-Dependent Effect | Active | 41.8 µM |
| COC(=O)c1cc2c(cc1OC)[C@]1(C)CCC(=O)C(C)(C)C1=C(O)C2=O | Dose-Dependent Effect | Dose-Dependent Effect | Active | 52.3 µM |
